Drawing on ChEMBL document CHEMBL1201862, “PubChem BioAssay data set” (2004), this text covers IC50, EC50 and AC50 for seven compounds.

Test [1] addresses T1, Methionyl-tRNA synthetase, putative (Trypanosoma brucei brucei, UniProt Q38C91).
T1 sequence (Q38C91 whole entry): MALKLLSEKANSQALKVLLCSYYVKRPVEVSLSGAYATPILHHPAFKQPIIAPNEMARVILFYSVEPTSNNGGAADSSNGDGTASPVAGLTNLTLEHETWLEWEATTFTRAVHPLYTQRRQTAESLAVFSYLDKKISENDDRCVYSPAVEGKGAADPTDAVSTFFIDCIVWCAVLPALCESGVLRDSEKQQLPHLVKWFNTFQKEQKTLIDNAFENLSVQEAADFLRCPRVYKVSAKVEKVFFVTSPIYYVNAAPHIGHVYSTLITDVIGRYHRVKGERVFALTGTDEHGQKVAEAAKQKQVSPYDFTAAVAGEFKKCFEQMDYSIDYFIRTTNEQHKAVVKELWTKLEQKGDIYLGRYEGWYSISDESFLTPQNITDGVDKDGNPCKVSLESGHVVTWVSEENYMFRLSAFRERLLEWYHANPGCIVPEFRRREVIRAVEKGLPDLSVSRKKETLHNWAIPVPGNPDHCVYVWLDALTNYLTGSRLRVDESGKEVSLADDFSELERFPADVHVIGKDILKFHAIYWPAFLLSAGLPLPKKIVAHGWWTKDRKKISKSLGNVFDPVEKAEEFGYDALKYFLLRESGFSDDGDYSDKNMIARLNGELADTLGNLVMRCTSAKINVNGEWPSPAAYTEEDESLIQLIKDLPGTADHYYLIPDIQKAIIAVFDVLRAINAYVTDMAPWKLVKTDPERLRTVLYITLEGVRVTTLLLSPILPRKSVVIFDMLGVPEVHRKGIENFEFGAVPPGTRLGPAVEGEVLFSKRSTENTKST
Type of test: functional, Trypanosoma brucei brucei strain 927/4 GUTat10.1.

Test [2] can be described thus: Counterscreen for inhibitors of Trypanosoma brucei methionyl tRNA synthetase (MetRS): Luminescence-based cell-based high throughput dose response assay to identify compounds that are cytotoxic to Jurkat human T lymphocyte cells. Type of test: functional. Background: A counterscreen serves to expose hits that act by an unwanted route or on another target.
Test [3] is described as follows: Late stage counterscreen for inhibitors of Trypanosoma brucei methionyl tRNA synthetase (MetRS): Luminescence-based cell-based high throughput dose response assay to identify compounds that are cytotoxic to Jurkat human T lymphocyte cells. Type of test: functional.
Test [4] deals with T1, Methionyl-tRNA synthetase, putative. Type of test: functional, Trypanosoma brucei brucei strain 927/4 GUTat10.1. The source holds these as a separate data set.
Test [5] has as its target Prothrombin (Bos taurus, UniProt P00735). The test is described as follows: thrombin protease inhibitors – biochemical, fluorescence polarization, uHTS hits, dose response (AID 602369). In kind it is functional. Background: Polarisation of emitted light reports the rotation of a fluorescent probe.
The target of test [6] is E3 ubiquitin-protein ligase UHRF1 (Homo sapiens, UniProt Q96T88). Kind of test: Counterscreen for inhibitors of 5-meCpG-binding domain protein 2 (MBD2): TRFRET-based biochemical high throughput dose response assay to identify inhibitors of binding of ubiquitin-like with PHD and ring finger domains 1 (UHRF1) to methylated oligonucleotide.
In test [7] the target is 26S proteasome non-ATPase regulatory subunit 14 (Homo sapiens, UniProt O00487). The test is described as follows: inhibition of proteasome subunit RPN11 – biochemical, fluorescence polarization, uHTS hits, confirmation (AID 602368). Type of test: functional.
Test [8] deals with Eukaryotic translation initiation factor 4E (Mus musculus, UniProt P63073). The test is described as follows: blockers of eIF4G binding by eIF4E – biochemical, TR-FRET, dose response (AID 855).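 Further: potency for disrupting eIF4E binding to eIF4GI seen as loss of FRET.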 In kind it is functional. (Time-resolved FRET reads energy transfer from a long-lived donor to a nearby acceptor.)
The target of test [9] is DNA (cytosine-5)-methyltransferase 1 (Homo sapiens, UniProt P26358). Kind of test: inhibition of DNA methylation by DNMT1 – biochemical, fluorescent molecular beacon, confirmation (AID 602386). In kind it is functional.
The target in test [10] is T2, Carboxy-terminal domain RNA polymerase II polypeptide A small phosphatase 1 (Homo sapiens, UniProt Q9GZU7).
T2 sequence (Q9GZU7 whole entry): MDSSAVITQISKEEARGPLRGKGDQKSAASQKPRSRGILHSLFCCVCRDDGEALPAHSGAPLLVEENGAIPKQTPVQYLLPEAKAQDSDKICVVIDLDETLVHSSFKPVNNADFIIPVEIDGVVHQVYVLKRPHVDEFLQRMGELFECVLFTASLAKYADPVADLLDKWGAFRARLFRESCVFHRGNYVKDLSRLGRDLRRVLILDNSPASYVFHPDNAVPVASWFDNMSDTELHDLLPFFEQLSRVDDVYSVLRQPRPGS
Kind of test: CTDSP1 inhibitors, concentration-response, biochemical, absorbance readout, ultra-high-throughput screen actives (AID 540297). In kind it is functional.

In test [11] the target is 72 kDa type IV collagenase (Homo sapiens, UniProt P08253). The test is described as follows: Dose Response validation of uHTS RPN11 inhibitor hits using a MMP-2 Fluorescence assay. In kind it is functional.
In test [12] the target is DNA dC->dU-editing enzyme APOBEC-3A (Homo sapiens, UniProt P31941). Kind of test: A3A deaminase inhibition for selectivity – biochemical, dose response (AID 504722). In kind it is functional.
The target of test [13] is DNA dC->dU-editing enzyme APOBEC-3G (Homo sapiens, UniProt Q9HC16). Kind of test: Dose Response confirmation of small molecule APOBEC3G DNA Deaminase Inhibitors via a fluorescence-based single-stranded DNA deaminase assay. [Related pubchem assays (depositor defined):AID493012, AID493028]. Type of test: functional.
Test [14] addresses T3, Fibrinogen beta chain (Homo sapiens, UniProt P02675). Kind of test: Fluorescence polarization-based biochemical high throughput dose response assay to identify inhibitors that disrupt the binding of a cyclic peptide (Tn7) to the fibrin proteolytic product D-Dimer and fragment E complex [DD(E )].
In test [15] the target is T3, Fibrinogen beta chain. Kind of test: Fluorescence polarization-based biochemical high throughput dose response assay to identify inhibitors that disrupt the binding of a cyclic peptide (Tn6) to the fibrin proteolytic product D-Dimer and fragment E complex [DD(E )].
A short description of test [16]: alpha-synuclein stem-loop luciferase translation blockers – H4 neuroglioma cells, luminescence, confirmation (AID 1988). Type of test: functional, cell-based.
A short description of test [17]: luciferase reporter signal suppression in cells – H4 neuroglioma cells, luminescence, dose response (AID 1990). In kind it is functional, cell-based.
A short description of test [18]: DRD fibroblast viability loss – cell-based, non-viral oncogenic, luminescence, dose response (AID 1934). Type of test: functional. The note with it: Homo sapiens.
For test [19], the system named is BJ. The test is described as follows: cells. Type of test: functional, cell-based. The following applies: Homo sapiens.
The nature of test [20]: HEK-293T viability loss after treatment – luminescence, T-cell screen hits, cytotoxicity control for TCR NF-kB inhibitor project, dose response (AID 489026).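 Further: cells exposed to compound about 14 hours before the viability readout.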 In kind it is functional, cell-based.
Test [21] deals with BJ. The test is described as follows: BJ-TERT-LT-ST fibroblast viability loss – cell-based, RAS-independent, luminescence, dose response (AID 1935).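 Further: BJ fibroblasts immortalized with TERT plus LT and ST oncogenes.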 Type of test: functional. The following applies: Homo sapiens.
The nature of test [22]: toxicity toward HEK293 cells – cell-based, dry powder samples, cytotoxicity control, dose response (AID 720567). In kind it is functional.
Test [23] in a line: Luminescence Cell-Based Dose Response HTS to Identify Inhibitors of 5'UTR Stem-Loop Driven Prion Protein mRNA Translation in H4 Neuroglioblastoma Cells. [Related pubchem assays: 1827 (Project Summary), 1813 (Primary HTS)]. In kind it is functional.
Test [24] has as its system BJ. Kind of test: BJ-TERT fibroblast viability loss – cell-based, RAS-independent, luminescence, dose response (AID 1933). Type of test: functional. The following applies: Homo sapiens.
A short description of test [25]: Luminescence-based cell-based high throughput dose response assay to identify activators of the DAF-12 from the parasite S. stercoralis (ssDAF-12). In kind it is functional.
For test [26], the target named is T4, Oxysterols receptor LXR-beta (Homo sapiens, UniProt P55055).
T4 sequence (P55055 whole entry): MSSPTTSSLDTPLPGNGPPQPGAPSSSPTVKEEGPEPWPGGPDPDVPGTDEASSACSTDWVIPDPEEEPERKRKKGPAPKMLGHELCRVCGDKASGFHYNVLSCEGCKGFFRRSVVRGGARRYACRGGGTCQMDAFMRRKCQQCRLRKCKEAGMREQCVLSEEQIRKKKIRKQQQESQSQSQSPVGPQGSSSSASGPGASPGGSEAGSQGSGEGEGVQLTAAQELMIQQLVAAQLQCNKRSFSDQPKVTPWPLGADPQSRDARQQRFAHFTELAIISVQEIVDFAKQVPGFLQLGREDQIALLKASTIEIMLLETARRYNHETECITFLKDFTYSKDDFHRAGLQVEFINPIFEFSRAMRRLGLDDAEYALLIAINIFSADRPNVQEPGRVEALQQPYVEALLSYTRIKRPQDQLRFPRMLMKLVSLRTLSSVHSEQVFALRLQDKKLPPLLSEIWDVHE
The test is described as follows: LXR agonists, Gal4 luciferase reporter, dose response, counter-screen for ssDAF-12 agonist project, cell-based, luminescence, HEK293, S. stercoralis campaign (AID 720737). In kind it is functional. The following applies: read-out: IC50 (the source's name).

A short description of test [27]: OVCAR-3 cell viability loss – plate reader, dry powder samples, PAX8 inhibitor project, dose response (AID 743044). Type of test: functional, cell-based.
Test [28] deals with Paired box protein Pax-8 (Homo sapiens, UniProt Q06710). The test is described as follows: PAX8 transcriptional activity inhibition in RMG-I – RMG-I cells, luciferase, cherry-pick, dose response (AID 687027).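 Further: luciferase reporter driven by Pax8 target thyroperoxidase promoter measured by SteadyGlo luminescence.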 In kind it is functional, cell-based.
Test [29] deals with Kallikrein-7 (Homo sapiens, UniProt P49862). The test is described as follows: Fluorescence Intensity-based biochemical primary high throughput dose response assay to identify activators of kallikrein-7 (K7) zymogen.

The source made the active and inactive calls.

T3 sequence (P02675 whole entry, the tested form may be a part): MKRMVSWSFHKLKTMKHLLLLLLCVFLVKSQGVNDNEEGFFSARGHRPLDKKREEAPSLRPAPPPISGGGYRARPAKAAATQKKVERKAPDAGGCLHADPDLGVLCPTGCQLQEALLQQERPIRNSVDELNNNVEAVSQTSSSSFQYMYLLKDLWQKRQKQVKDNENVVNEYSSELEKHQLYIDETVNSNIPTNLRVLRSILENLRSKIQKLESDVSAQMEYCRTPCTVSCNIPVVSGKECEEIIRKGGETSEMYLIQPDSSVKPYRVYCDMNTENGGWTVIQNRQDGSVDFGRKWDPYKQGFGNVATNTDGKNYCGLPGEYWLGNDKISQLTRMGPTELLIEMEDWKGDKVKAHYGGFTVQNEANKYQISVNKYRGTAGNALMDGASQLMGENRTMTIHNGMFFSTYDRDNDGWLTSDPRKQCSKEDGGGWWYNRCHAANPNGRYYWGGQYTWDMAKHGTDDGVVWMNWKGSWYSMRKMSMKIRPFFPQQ
Chain of DNA dC->dU-editing enzyme APOBEC-3A (P31941 whole entry): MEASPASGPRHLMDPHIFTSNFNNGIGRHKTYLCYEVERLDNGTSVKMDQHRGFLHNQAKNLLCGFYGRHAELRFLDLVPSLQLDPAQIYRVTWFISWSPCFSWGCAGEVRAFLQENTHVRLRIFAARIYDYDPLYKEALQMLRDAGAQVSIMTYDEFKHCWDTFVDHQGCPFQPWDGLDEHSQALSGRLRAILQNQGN
Chain of DNA dC->dU-editing enzyme APOBEC-3G (Q9HC16 whole entry, the tested form may be a part): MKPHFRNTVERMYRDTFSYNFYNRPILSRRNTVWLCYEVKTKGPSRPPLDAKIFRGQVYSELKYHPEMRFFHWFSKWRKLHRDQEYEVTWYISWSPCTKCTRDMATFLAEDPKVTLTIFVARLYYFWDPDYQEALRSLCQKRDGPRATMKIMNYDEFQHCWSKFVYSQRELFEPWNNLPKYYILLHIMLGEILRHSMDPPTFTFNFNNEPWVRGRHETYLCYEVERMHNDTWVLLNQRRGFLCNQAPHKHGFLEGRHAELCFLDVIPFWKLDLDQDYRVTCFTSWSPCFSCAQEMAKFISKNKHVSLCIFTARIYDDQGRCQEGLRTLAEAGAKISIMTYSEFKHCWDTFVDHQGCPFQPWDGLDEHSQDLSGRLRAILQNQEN
Chain of E3 ubiquitin-protein ligase UHRF1 (Q96T88 whole entry, the tested form may be a part): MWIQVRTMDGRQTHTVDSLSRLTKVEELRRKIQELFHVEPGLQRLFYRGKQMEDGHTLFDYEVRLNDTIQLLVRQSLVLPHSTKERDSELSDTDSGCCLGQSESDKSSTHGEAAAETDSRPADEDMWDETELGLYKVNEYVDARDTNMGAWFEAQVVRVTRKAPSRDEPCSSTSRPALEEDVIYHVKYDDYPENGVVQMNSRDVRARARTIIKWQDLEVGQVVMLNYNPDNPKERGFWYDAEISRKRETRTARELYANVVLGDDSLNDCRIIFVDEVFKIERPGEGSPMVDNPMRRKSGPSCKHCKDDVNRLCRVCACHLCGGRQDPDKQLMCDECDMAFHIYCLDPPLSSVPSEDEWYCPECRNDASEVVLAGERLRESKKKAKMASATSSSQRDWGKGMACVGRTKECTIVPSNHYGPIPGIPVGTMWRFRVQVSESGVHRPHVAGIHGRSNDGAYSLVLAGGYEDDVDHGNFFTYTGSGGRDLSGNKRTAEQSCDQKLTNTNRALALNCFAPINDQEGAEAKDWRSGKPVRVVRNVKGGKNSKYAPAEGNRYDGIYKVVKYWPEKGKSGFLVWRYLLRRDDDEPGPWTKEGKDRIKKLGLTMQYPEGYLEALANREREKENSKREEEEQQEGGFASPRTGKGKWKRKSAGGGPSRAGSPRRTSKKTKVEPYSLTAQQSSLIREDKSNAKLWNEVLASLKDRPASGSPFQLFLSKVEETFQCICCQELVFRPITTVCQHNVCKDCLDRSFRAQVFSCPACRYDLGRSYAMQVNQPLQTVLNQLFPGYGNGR
Chain of Paired box protein Pax-8 (Q06710 whole entry): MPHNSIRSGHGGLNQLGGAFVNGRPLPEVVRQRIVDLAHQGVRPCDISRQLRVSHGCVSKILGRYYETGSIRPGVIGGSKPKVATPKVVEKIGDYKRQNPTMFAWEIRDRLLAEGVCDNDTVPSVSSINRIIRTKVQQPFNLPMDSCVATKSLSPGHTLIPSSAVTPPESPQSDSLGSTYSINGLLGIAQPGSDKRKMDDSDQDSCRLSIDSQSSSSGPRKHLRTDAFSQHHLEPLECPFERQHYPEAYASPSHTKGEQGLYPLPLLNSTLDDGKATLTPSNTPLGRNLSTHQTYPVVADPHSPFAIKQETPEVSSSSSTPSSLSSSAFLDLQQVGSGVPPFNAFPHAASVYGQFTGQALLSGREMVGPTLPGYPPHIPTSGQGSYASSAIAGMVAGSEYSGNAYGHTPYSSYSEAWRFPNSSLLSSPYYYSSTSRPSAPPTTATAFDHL
Chain of Eukaryotic translation initiation factor 4E (P63073 whole entry): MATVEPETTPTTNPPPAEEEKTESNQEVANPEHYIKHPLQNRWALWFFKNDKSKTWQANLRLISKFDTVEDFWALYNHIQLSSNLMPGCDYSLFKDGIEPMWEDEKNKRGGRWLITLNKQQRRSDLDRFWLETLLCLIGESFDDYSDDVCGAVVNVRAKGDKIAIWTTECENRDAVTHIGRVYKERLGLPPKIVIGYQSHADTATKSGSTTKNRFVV
Chain of 72 kDa type IV collagenase (P08253 whole entry): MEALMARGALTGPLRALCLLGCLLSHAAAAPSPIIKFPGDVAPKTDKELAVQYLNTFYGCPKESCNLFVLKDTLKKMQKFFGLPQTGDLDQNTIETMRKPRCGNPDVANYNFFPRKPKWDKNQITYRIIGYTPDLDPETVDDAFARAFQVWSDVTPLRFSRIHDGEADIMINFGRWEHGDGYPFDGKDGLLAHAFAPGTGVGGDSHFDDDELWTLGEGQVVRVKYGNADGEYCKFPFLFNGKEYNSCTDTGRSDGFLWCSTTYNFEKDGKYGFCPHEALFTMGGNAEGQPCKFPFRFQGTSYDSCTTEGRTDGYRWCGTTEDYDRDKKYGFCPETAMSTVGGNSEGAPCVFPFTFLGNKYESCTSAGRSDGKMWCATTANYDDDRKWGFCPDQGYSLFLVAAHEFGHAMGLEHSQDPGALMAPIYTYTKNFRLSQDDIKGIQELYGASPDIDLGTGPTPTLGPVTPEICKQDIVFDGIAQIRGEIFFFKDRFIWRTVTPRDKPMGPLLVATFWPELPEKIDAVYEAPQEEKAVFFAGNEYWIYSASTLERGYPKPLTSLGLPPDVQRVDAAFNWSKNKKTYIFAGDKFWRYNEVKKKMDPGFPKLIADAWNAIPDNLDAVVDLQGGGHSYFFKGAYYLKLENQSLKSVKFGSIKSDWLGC
Chain of 26S proteasome non-ATPase regulatory subunit 14 (O00487 whole entry): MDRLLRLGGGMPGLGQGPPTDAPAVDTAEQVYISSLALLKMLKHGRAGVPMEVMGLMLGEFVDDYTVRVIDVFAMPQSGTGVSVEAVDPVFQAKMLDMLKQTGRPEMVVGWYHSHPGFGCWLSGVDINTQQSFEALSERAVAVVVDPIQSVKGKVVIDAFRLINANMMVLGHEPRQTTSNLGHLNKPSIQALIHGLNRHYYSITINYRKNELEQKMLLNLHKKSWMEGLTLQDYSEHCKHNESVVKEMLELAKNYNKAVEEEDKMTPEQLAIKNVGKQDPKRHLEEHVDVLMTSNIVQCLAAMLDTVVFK
Chain of Kallikrein-7 (P49862 whole entry): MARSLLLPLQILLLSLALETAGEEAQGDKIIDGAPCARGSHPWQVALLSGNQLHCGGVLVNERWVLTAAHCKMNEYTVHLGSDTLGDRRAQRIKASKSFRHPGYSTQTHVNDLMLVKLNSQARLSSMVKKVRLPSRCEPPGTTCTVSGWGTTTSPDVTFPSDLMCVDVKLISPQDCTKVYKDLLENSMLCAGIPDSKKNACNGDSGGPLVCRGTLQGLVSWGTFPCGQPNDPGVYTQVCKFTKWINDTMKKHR

Take `O=C1[C@@H]2Cc3c([nH]c4ccccc34)C(c3cccc([N+](=O)[O-])c3)N2C(=O)CN1CCCO` (some centres undefined): the IC50 in test [1] was 0.911 µM (active); in [2], 83.3 µM (inactive); in test [3] it was > 83.3 µM (inactive); in test [4], 0.528 µM (active).
As for `Cc1c2cnn(CC(=O)Nc3c(F)c(F)cc(F)c3F)c(=O)c2c(C)n1Cc1ccccc1F`, the IC50 in test [5] is 50.5 µM (active); in test [6], > 43.8 µM (inactive); in [7], 19.5 µM (active); in test [8], 50 µM (inactive); in [9], 7.6 µM (active); in test [10], 2.96 µM (active). Besides, the IC50 was > 100 µM (inactive) in test [11], 49.3 µM (active) in [12] and 9.31 µM (active) in test [13].
For `CN1CCS/C1=C/C=C1/SC(=S)N(Cc2ccccc2)C1=O`, the figures for the IC50 in [14] and in test [15] were > 83.3 µM (inactive) and 10.2 µM (inactive), respectively.
Consider `CCCOC(=O)c1[nH]c2c(c1C)C(=O)CC(c1cccs1)C2` (centres undefined), for which the EC50 in test [16] is 0.167 µM (active); in test [17] it was 0.391 µM (active); in test [18], 0.615 µM (active); in test [19] it was 1.82 µM (active); in test [21] it was 0.399 µM (active); in [23], 1.01 µM (active). The EC50 in [24] is 0.567 µM (active). Moreover, the IC50 in test [20] was > 80 µM (inactive). Further, the AC50 in test [22] was 0.594 µM (active).
Regarding `Cc1ccnc(NC(=O)c2ccc3nc(O)c(O)nc3c2)c1`, the IC50 in test [25] is > 67.5 µM (inactive). The EC50 in test [26] is > 67.5 µM (inactive).
On to `C[C@@H]1CN([C@H](C)CO)S(=O)(=O)c2ccc(C#Cc3ccc(F)cc3)cc2O[C@H]1CN(C)C(=O)NC1CCCCC1`, for which the AC50 in test [27] is 48.1 µM (active); in test [28], 9.47 µM (active).
With `Nc1nc2ccc(Cl)cc2cc1C(=O)NCCCN1CCOCC1`, in test [29], the EC50 is 28.3 µM (inactive).

Usually IC50 stands for the midpoint of a concentration-inhibition curve. By AC50 is commonly meant the concentration giving half of the maximal activity seen.
